Measured values from paper PMC7134380 (Journal of the American Chemical Society, 2020).

Biological target: T1, human ornithine aminotransferase (hOAT) (Homo sapiens, UniProt P04181)
T1 sequence (P04181 26-439 limits assumed): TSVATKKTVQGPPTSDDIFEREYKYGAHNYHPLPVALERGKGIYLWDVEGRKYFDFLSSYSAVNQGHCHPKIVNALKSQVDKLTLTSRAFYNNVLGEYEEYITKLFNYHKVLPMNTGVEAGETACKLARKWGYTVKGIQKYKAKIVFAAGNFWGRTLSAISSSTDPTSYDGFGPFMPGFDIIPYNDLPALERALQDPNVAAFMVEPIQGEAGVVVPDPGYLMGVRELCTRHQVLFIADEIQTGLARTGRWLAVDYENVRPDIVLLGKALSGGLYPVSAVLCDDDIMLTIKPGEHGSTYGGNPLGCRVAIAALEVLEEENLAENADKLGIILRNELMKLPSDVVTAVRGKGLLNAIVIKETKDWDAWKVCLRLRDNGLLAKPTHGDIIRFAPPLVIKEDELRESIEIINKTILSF
Assay: time-dependent inactivation kinetics
Format: biochemical
Settings: read-out: hOAT / KI; covalent; mechanism-based inactivator (kinact/KI analysis)

Compound `N[C@H]1C[C@@H](C(=O)O)C[C@@H]1F` [compound 1, (1R,3S,4S)-3-amino-4-fluorocyclopentane-1-carboxylic acid] has a KI (inactivation) of 1400 ± 41 µM.
